Test results published in patent US20190336489A1, “NON PEPTIDE HETEROBIVALENT MOLECULES FOR TREATING INFLAMMATORY DISEASES” (GLAXOSMITHKLINE INTELLECTUAL PROPERTY DEVELOPMENT LIMITED, priority 2017, published 2019).
Like-named read-outs stand apart in the source and are kept apart here. Marks after values point to notes of the source that are not given here.

Target: T1, CCR2 (Homo sapiens, UniProt P41597)
T1 construct: expressed in transfected cells; host or cells: CHOK1
Test: Antibody Dependent Cellular Cytotoxicity (ADCC) reporter assay, CCR2 target cells
Type: cell-based
Settings: for ADCC efficacy: maximum signal:background (S/B)
Text: The compounds described herein have been characterized in an ADCC reporter assay (see Section 1.2 ADCC reporter for protocol). […] Furthermore, the assay also confirms that this formed complex can engage and activate the Fc receptors on immune cells. Lastly, the assay provides both potency (EC50) and efficacy (signal to background ratio) for each compound in a dose dependant manner.
This assay has four components • 1) Heterobivalent Compound consisting of a targeting ligand and a hapten connected by a linker (ranging from 10 uM-1 pM) • 2) A hapten antibody with functional Fc domain (typical concentrations are 0.01 ug/mL-200 ug/mL) • 3) Target cells—CHOK1 cells engineered to overexpress either CCR1, CCR2, or CCR3, or CEMNKR cells engineered to overexpress CCR5 (typically 1000-20,000 cells per well) • 4) Reporter cells—Jurkat cells engineered to express FcgRIIIa (ADCC reporter assay) and with a reporter gene (luciferase) under the control of the NFAT promoter (typically 3000-75,000 cells per well)
Reagents are combined in final volume of 20 uL in 384-well tissue culture treated plated.
All components are incubated together for ˜12-18 hours. Add BioGlo Detection reagent (from Promega) to lyse the cells and provide substrate for the luciferase reporter protein. Signal is measured on a microplate reader capable of measuring luminescence. Signal:Background is calculated by dividing the signal of a test well by the signal obtained when no compound is included in the assay. EC50 calculations were done using Graphpad Prism Software, specifically a nonlinear regression curve fit (Y=Bottom+(Top−Bottom)/(1+10^((Log EC50−X)*HillSlope)))

[1] = CHOK1 cells overexpressing CCR2, Jurkat FcgRIIIa NFAT-luciferase reporter cells, EC50 class, read-out: ADCC potency
[2] = CHOK1 cells overexpressing CCR2
[3] = CHOK1 cells overexpressing CCR2, Jurkat FcgRIIIa NFAT-luciferase reporter cells, EC50 class

T1 sequence (P41597 whole entry, species assumed): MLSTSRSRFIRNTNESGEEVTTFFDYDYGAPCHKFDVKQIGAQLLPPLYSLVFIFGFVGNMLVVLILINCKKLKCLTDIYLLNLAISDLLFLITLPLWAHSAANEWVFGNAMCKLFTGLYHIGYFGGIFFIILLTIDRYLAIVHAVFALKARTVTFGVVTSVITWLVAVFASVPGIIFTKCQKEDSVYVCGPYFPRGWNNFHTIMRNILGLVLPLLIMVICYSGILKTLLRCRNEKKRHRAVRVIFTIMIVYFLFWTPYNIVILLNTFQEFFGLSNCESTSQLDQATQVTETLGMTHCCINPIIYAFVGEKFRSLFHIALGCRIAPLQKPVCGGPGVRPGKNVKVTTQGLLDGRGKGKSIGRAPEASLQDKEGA

Row | SMILES | EC50 [1] | ADCC efficacy [2] | EC50 | ADCC potency [3]
1 | Cc1ccc2c(c1)NC[C@]21CCN(C[C@@H](O)C2CCN(c3ncc(-c4cccc(C(=O)NCCOCCOCCOCCOCCOCCOCCOCCOCCOCCNc5ccc([N+](=O)[O-])cc5[N+](=O)[O-])c4)o3)CC2)C[C@H]1C [Compound 11, 3-(2-(4-((S)-2-((3S,3′S)-3′,6-Dimethylspiro[indoline-3,4′-piperidin]-1′-yl)-1-hydroxyethyl)piperidin-1-yl)oxazol-5-yl)-N-(29-((2,4-dinitrophenyl)amino)-3,6,9,12,15,18,21,24,27-nonaoxanonacosyl)benzamide] | 10 to 100 nM | +++^e (Maximum Signal:Background > 10 = +++) | – | –
2 | Cc1ccc2c(c1)NC[C@]21CCN(C[C@@H](O)C2CCN(C(=O)c3cc4ccc(OCCOCCOCCOCCNC(=O)CCC(=O)NCCOCCOCCOCCNc5ccc([N+](=O)[O-])cc5[N+](=O)[O-])cc4[nH]3)CC2)C[C@H]1C [Compound 13, N1-(2-(2-(2-(2-((2-(4-((S)-2-((3S,3′S)-3′,6-Dimethylspiro[indoline-3,4′-piperidin]-1′-yl)-1-hydroxyethyl)piperidine-1-carbonyl)-1H-indol-6-yl)oxy)ethoxy)ethoxy)ethoxy)ethyl)-N4-(2-(2-(2-(2-((2,4-dinitrophenyl)amino)ethoxy)ethoxy)ethoxy)ethyl)succinamide] | – | +++^e (Maximum Signal:Background > 10 = +++) | 1 to 10 nM | –
3 | O=C(NCC(=O)N1CC[C@H](NC2CCC(O)(c3ccc(-c4ncccn4)cn3)CC2)C1)c1cc(OCCOCCOCCOCCOCCOCCOCCOCCOCCOCCNc2ccc([N+](=O)[O-])cc2[N+](=O)[O-])cc(C(F)(F)F)c1 (single isomer, unassigned) [Compound 17] | – | +++^e (Maximum Signal:Background > 10 = +++) | – | +++ (pEC50 ≥ 9 = +++)
4 | CC(C)(C)N1CCNC(C(=O)N2CCN(C(=O)Nc3ccc(Cl)c(F)c3)C(CCOC(=O)NCCOCCOCCOCCOCCOCCOCCOCCOCCOCCNc3ccc([N+](=O)[O-])cc3[N+](=O)[O-])C2)C1 (single isomer, unassigned) [Compound 19, 2-(4-(4-(Tert-butyl)piperazine-2-carbonyl)-1-((4-chloro-3-fluorophenyl)carbamoyl)piperazin-2-yl)ethyl (29-((2,4-dinitrophenyl)amino)-3,6,9,12,15,18,21,24,27-nonaoxanonacosyl)carbamate] | < 1 nM | +++^e (Maximum Signal:Background > 10 = +++) | – | –
5 | Cc1ccc2c(c1)NC[C@]21CCN(C[C@@H](O)C2CCN(C(=O)c3cc4ccc(Oc5ccc(C(=O)NCCOCCOCCOCCOCCOCCOCCOCCOCCOCCNc6ccc([N+](=O)[O-])cc6[N+](=O)[O-])cc5)cc4[nH]3)CC2)C[C@H]1C [Compound 12, 4-((2-(4-((S)-2-((3S,3′S)-3′,6-Dimethylspiro[indoline-3,4′-piperidin]-1′-yl)-1-hydroxyethyl)piperidine-1-carbonyl)-1H-indol-6-yl)oxy)-N-(29-((2,4-dinitrophenyl)amino)-3,6,9,12,15,18,21,24,27-nonaoxanonacosyl)benzamide] | < 1 nM | +++^e (Maximum Signal:Background > 10 = +++) | – | –
6 | CC(C)[C@]1(C(=O)N2CCc3nc(CCCCOc4cccc(C(=O)NCCOCCOCCOCCOCCOCCOCCOCCOCCOCCNc5ccc([N+](=O)[O-])cc5[N+](=O)[O-])c4)c(C(F)(F)F)cc3C2)CC[C@@H](NC2CCOCC2)C1 [Compound 7, N-(29-((2,4-dinitrophenyl)amino)-3,6,9,12,15,18,21,24,27-nonaoxanonacosyl)-3-(4-(6-((1S,3R)-1-isopropyl-3-((tetrahydro-2H-pyran-4-yl)amino)cyclopentanecarbonyl)-3-(trifluoromethyl)-5,6,7,8-tetrahydro-1,6-naphthyridin-2-yl)butoxy)benzamide] | < 1 nM | +++^e (Maximum Signal:Background > 10 = +++) | – | –
7 | Cc1ccc2c(c1)NC[C@]21CCN(C[C@@H](O)C2CCN(C(=O)c3cc4c(OCCOCCOCCOCCNC(=O)CCC(=O)NCCOCCOCCOCCNc5ccc([N+](=O)[O-])cc5[N+](=O)[O-])cccc4[nH]3)CC2)C[C@H]1C [Compound 14, N1-(2-(2-(2-(2-((2-(4-((S)-2-((3S,3′S)-3′,6-dimethylspiro[indoline-3,4′-piperidin]-1′-yl)-1-hydroxyethyl)piperidine-1-carbonyl)-1H-indol-4-yl)oxy)ethoxy)ethoxy)ethoxy)ethyl)-N4-(2-(2-(2-(2-((2,4-dinitrophenyl)amino)ethoxy)ethoxy)ethoxy)ethyl)succinamide] | – | ++^e (>5 = ++) | 100 to 1000 nM | –
8 | Cc1ccc2c(c1)NC[C@]21CCN(C[C@@H](O)C2CCN(C(=O)c3cc4ccc(Oc5ccc(C(=O)N6CCN(CCCNc7ccc([N+](=O)[O-])cc7[N+](=O)[O-])CC6)cc5)cc4[nH]3)CC2)C[C@H]1C [Compound 15, (4-((S)-2-((3S,3′S)-3′,6-Dimethylspiro[indoline-3,4′-piperidin]-1′-yl)-1-hydroxyethyl)piperidin-1-yl)(6-(4-(4-(3-((2,4-dinitrophenyl)amino)propyl)piperazine-1-carbonyl)phenoxy)-1H-indol-2-yl)methanone] | 1 to 10 nM | +++^e (Maximum Signal:Background > 10 = +++) | – | –
9 | Cc1ccc2c(c1)NC[C@]21CCN(C[C@@H](O)C2CCN(C(=O)/C=C/c3cc(F)cc(OCCOCCOCCOCCOCCOCCOCCOCCOCCOCCNc4ccc([N+](=O)[O-])cc4[N+](=O)[O-])c3)CC2)C[C@H]1C [Compound 9, (E)-1-(4-((S)-2-((3S,3′S)-3′,6-Dimethylspiro[indoline-3,4′-piperidin]-1′-yl)-1-hydroxyethyl)piperidin-1-yl)-3-(3-((29-((2,4-dinitrophenyl)amino)-3,6,9,12,15,18,21,24,27-nonaoxanonacosyl)oxy)-5-fluorophenyl)prop-2-en-1-one] | < 1 nM | +++^e (Maximum Signal:Background > 10 = +++) | – | –
10 | CC(C)[C@]1(C(=O)N2CCc3nc(CCCCOc4ccc(C(=O)NCCOCCOCCOCCOCCOCCOCCOCCOCCOCCNc5ccc([N+](=O)[O-])cc5[N+](=O)[O-])cc4)c(C(F)(F)F)cc3C2)CC[C@@H](NC2CCOCC2)C1 [Compound 6, N-(29-((2,4-dinitrophenyl)amino)-3,6,9,12,15,18,21,24,27-nonaoxanonacosyl)-4-(4-(6-((1S,3R)-1-isopropyl-3-((tetrahydro-2H-pyran-4-yl)amino)cyclopentanecarbonyl)-3-(trifluoromethyl)-5,6,7,8-tetrahydro-1,6-naphthyridin-2-yl)butoxy)benzamide] | < 1 nM | +++^e (Maximum Signal:Background > 10 = +++) | – | –
11 | Cc1ccc2c(c1)NC[C@]21CCN(C[C@@H](O)C2CCN(C(=O)c3cc4cc(Oc5ccc(C(=O)NCCOCCOCCOCCOCCOCCOCCOCCOCCOCCNc6ccc([N+](=O)[O-])cc6[N+](=O)[O-])cc5)ccc4[nH]3)CC2)C[C@H]1C [Compound 10, 4-((2-(4-((S)-2-((3S,3′S)-3′,6-Dimethylspiro[indoline-3,4′-piperidin]-1′-yl)-1-hydroxyethyl)piperidine-1-carbonyl)-1H-indol-5-yl)oxy)-N-(29-((2,4-dinitrophenyl)amino)-3,6,9,12,15,18,21,24,27-nonaoxanonacosyl)benzamide] | 1 to 10 nM | +++^e (Maximum Signal:Background > 10 = +++) | – | –
12 | O=C(NCC(=O)N1CC[C@H](NC2CCC(O)(c3ccc(-c4ncccn4)cn3)CC2)C1)c1cc(OCCOCCOCCOCCOCCOCCOCCOCCOCCOCCNc2ccc([N+](=O)[O-])cc2[N+](=O)[O-])cc(C(F)(F)F)c1 (single isomer, unassigned) [Compound 16] | – | ++^e (>5 = ++) | – | +++ (pEC50 ≥ 9 = +++)
